Molecules are shown by their SMILES.

This note sets out measurements from publication PMC10303271, “Synthesis and Receptor Binding Studies of α5 GABAAR Selective Novel Imidazodiazepines Targeted for Psychiatric and Cognitive Disorders” (Molecules, 2023).

One series concerns the target T1, Alpha2A (Homo sapiens, UniProt P08913).
T1 construct: purchased NIMH Psychoactive Drug Screening Program (PDSP)
T1 sequence (P08913 1-465): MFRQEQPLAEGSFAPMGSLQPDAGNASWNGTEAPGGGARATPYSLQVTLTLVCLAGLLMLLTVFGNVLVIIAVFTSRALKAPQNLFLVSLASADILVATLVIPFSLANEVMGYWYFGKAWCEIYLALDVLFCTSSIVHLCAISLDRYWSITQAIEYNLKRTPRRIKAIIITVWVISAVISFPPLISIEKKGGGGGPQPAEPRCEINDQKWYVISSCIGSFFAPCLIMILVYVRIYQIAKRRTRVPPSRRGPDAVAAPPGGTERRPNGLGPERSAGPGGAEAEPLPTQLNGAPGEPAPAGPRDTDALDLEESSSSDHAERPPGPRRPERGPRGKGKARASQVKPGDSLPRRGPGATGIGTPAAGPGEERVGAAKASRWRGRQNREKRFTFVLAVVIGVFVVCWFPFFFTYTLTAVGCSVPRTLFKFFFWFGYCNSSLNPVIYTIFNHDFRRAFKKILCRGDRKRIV
Description: PDSP primary binding Alpha2A. Conditions: 1.5 h; primary binding, 10,000 nM; last figure of the line = mean of the 4 before it; read-out: Alpha2A, PDSP raw data, mean. Here is the method:
(§1) To determine if any off-target receptor-binding effects are present, all the novel ligands were sent to the National Institute of Mental Health (NIMH), Psychoactive Drug Screening Program (PDSP). The ligands were screened over a panel of 47 receptors, ion channels, and transporters to determine any other possible interactions with […]. The hERG-binding was also determined. […] No binding of the test compounds to calcium channels was observed. […] It is necessary to screen the compounds for hERG-binding during the early process of drug discovery. The unintentional binding of many drugs to hERG can cause blockade of hERG K+ channels in the heart, which can cause many side effects including cardiac arrhythmias and sudden death. […] All of the α5 imidazodiazepines were tested for hERG-binding.
(§2) The NIMH PDSP assay protocol book [https://kidbdev.med.unc.edu/databases/PDSP%20Protocols%20II%202013-03-28.pdf accessed on 23 April 2023]. describes the protocols for primary and secondary radio-ligand binding assays. These assays were carried out in a final volume of 125 µL per well in the appropriate binding buffer.
(§3) The binding of a ligand to a receptor, ion channel, or transporter was determined in the […] of 10 µM of the appropriate reference compound. […] Plates were incubated in the dark for 90 min at rt, and the reactions were stopped by vacuum filtration onto 0.3% polyethyleneimine (PEI) soaked 96-well filter mats using a 96-well Filtermateharvester. This was followed by three washes with cold PBS buffer. Radioactivity was then counted on a Microbeta counter. Nonlinear regression was used to analyze the data with N = 6 replicates.

The next series deals with T2, 5-HT1B (Homo sapiens, UniProt P28222).
T2 construct: purchased NIMH Psychoactive Drug Screening Program (PDSP)
Description: PDSP primary binding 5-HT1B. As to conditions: 1.5 h; primary binding, 10,000 nM; last figure of the line = mean of the 4 before it; read-out: 5-HT1B, PDSP raw data, mean. How it is done:
as §1, §2, §3

In another series the target is T3, M2 (Homo sapiens, UniProt P08172).
T3 construct: purchased NIMH Psychoactive Drug Screening Program (PDSP)
T3 sequence (P08172 1-466): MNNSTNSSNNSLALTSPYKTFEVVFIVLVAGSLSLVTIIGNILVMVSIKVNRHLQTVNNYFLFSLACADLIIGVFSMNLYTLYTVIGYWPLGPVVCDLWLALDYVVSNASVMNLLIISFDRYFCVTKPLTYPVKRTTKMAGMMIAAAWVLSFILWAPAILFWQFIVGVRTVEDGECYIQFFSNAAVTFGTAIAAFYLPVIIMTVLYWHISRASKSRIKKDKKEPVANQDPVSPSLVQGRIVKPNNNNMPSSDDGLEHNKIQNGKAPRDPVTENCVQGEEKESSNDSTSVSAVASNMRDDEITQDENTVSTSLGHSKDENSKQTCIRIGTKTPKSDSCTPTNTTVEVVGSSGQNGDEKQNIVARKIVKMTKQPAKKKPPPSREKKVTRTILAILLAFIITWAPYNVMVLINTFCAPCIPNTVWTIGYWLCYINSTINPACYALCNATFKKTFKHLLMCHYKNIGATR
Description: PDSP primary binding M2. Conditions: primary binding, 10,000 nM; last figure of the line = mean of the 4 before it; read-out: M2, PDSP raw data, mean. Here is the method: as §1, §2, §3

The target of the next series is T4, Alpha4Beta4 (Rattus norvegicus, UniProt P09483+P12392).
T4 construct: purchased NIMH Psychoactive Drug Screening Program (PDSP)
Description: PDSP primary binding Alpha4Beta4. As to conditions: primary binding, 10,000 nM; last figure of the line = mean of the 4 before it; read-out: Alpha4Beta4, PDSP raw data, mean. How it is done:
as §1, §2, §3

Another series addresses T5, H2 (Homo sapiens, UniProt P25021).
T5 construct: purchased NIMH Psychoactive Drug Screening Program (PDSP)
Description: PDSP primary binding H2. Conditions: primary binding, 10,000 nM; last figure of the line = mean of the 4 before it; read-out: H2, PDSP raw data, mean. Here is the method: as §1, §2, §3

Another series concerns the target T6, 5-HT1E (Homo sapiens, UniProt P28566).
T6 construct: purchased NIMH Psychoactive Drug Screening Program (PDSP)
Description: PDSP primary binding 5-HT1E. Conditions: primary binding, 10,000 nM; last figure of the line = mean of the 4 before it. How it is done:
as §1, §2, §3

In a further series the target is T7, Beta3 (Homo sapiens, UniProt P13945).
T7 construct: purchased NIMH Psychoactive Drug Screening Program (PDSP)
Description: PDSP primary binding Beta3. As to conditions: 1.5 h; primary binding, 10,000 nM; last figure of the line = mean of the 4 before it; read-out: Beta3, PDSP raw data, mean. How it is done: as §1, §2, §3

In the next series the target is T8, M4 (Homo sapiens, UniProt P08173).
T8 construct: purchased NIMH Psychoactive Drug Screening Program (PDSP)
T8 sequence (P08173 1-479): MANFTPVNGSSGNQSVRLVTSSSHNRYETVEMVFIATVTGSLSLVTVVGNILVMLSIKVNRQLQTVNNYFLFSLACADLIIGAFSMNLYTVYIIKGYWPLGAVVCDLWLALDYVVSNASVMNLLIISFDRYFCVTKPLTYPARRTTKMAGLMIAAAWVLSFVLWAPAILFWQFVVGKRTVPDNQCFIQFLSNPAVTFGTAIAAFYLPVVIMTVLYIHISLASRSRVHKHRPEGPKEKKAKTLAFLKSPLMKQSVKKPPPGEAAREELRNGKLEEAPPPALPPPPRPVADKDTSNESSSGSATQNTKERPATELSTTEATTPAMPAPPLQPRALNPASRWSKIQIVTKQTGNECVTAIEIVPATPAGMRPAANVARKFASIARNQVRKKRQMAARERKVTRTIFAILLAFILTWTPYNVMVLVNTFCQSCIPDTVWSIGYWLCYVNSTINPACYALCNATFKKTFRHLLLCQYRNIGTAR
Description: PDSP primary binding M4. As to conditions: primary binding, 10,000 nM; last figure of the line = mean of the 4 before it; read-out: M4, PDSP raw data, mean. How it is done:
as §1, §2, §3

A further series has as its target T9, hERG channels (Homo sapiens, UniProt Q12809).
T9 construct: purchased NIMH Psychoactive Drug Screening Program (PDSP)
Description: PDSP radioligand binding at hERG. As to conditions: primary binding, 10,000 nM; last figure of the line = mean of the 4 before it. Here is the method: as §1, §2, §3
For orientation: The hERG channel carries a current that helps repolarise heart muscle cells.

T7 sequence (P13945 whole entry): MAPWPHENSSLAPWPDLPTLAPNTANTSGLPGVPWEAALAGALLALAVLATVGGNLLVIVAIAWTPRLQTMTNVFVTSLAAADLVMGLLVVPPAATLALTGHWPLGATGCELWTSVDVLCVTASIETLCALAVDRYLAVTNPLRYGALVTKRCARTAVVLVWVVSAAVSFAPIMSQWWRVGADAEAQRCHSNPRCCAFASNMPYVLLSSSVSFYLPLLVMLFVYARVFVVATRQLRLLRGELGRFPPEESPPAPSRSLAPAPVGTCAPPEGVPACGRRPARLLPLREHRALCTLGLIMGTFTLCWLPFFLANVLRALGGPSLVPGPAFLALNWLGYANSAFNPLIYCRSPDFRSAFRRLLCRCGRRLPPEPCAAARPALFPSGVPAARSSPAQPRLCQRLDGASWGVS
T4 sequence (P09483 31-630): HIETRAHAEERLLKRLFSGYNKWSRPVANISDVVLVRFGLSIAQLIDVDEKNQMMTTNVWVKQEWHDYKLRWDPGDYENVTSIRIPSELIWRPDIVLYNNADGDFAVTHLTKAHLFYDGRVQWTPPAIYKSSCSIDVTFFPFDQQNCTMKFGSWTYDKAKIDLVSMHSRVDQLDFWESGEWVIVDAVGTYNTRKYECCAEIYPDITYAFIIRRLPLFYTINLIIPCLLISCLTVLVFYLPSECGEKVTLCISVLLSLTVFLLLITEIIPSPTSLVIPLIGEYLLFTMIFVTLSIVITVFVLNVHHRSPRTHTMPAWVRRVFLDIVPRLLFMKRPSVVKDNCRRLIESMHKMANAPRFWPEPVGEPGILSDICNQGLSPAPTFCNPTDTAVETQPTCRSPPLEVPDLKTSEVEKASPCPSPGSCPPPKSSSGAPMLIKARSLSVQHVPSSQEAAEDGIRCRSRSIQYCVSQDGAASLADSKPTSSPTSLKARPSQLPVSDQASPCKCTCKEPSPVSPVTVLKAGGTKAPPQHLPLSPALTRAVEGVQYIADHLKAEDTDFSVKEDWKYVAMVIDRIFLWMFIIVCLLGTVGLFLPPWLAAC
T4 sequence (P12392 21-495): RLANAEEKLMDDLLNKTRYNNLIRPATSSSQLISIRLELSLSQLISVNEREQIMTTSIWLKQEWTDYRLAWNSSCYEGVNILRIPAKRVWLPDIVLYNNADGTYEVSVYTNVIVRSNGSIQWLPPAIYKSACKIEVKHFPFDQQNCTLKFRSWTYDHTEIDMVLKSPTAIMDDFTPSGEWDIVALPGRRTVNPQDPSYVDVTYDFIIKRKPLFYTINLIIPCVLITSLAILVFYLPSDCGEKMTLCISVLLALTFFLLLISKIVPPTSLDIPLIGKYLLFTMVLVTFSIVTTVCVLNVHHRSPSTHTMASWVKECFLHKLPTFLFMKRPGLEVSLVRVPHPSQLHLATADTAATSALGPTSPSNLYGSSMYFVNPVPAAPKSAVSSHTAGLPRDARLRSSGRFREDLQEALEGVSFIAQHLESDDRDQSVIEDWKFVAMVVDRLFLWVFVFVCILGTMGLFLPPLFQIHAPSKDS
T9 sequence (Q12809 whole entry): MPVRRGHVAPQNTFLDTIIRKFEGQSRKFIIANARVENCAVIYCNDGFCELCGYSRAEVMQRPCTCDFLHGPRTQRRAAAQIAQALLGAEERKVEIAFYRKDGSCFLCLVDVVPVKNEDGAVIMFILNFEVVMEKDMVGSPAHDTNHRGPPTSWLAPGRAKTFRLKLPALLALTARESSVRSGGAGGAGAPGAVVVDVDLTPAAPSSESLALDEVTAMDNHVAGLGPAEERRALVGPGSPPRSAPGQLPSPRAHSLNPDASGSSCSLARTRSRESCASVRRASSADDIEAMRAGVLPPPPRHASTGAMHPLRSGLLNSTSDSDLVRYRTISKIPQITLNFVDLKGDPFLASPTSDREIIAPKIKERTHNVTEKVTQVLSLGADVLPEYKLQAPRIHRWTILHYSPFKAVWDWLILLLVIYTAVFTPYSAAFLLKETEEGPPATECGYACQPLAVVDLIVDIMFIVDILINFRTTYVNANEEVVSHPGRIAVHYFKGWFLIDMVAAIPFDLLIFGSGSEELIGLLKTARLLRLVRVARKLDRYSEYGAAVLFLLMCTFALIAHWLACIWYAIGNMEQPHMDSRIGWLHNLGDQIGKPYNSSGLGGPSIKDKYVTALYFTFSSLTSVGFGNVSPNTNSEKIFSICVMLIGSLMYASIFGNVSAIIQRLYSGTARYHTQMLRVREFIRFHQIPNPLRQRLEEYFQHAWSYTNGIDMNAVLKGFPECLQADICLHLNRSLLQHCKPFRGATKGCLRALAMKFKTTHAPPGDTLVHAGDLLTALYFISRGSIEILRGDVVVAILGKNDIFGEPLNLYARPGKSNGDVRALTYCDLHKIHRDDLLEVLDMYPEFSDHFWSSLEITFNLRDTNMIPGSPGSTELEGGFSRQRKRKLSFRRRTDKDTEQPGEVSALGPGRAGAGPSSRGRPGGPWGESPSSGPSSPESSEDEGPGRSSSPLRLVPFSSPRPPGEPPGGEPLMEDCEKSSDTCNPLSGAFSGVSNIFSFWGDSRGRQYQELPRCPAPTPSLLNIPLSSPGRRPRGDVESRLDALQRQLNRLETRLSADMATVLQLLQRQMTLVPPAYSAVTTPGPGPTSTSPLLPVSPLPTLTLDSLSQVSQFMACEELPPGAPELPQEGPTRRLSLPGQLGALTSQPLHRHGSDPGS
T5 sequence (P25021 whole entry): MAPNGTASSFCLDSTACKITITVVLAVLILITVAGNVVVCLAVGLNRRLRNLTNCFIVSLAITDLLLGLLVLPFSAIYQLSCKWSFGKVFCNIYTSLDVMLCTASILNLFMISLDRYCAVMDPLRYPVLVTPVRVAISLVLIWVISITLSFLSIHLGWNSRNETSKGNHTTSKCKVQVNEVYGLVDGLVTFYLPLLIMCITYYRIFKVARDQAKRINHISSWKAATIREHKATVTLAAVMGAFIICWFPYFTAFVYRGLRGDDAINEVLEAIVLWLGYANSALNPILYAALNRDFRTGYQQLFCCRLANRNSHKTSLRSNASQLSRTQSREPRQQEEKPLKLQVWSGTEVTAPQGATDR
T2 sequence (P28222 whole entry): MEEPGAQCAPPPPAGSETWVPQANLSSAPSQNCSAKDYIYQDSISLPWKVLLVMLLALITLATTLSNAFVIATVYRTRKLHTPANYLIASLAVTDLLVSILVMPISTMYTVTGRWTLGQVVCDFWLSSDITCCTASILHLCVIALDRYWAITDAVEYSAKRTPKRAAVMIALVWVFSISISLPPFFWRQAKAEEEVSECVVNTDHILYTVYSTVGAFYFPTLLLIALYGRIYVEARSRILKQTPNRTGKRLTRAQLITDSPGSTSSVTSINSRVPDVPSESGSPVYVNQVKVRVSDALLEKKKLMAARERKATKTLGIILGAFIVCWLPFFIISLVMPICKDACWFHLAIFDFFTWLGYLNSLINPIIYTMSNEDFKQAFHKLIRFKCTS
T6 sequence (P28566 whole entry): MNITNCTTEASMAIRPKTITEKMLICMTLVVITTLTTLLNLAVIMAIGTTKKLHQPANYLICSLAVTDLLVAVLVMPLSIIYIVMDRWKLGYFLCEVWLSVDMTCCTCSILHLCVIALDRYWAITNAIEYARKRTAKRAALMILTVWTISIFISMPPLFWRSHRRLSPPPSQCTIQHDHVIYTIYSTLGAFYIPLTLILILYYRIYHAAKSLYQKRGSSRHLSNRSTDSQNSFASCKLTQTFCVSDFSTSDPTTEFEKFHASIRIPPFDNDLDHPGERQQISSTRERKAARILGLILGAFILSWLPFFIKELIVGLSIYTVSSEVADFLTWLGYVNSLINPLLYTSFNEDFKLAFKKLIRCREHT

Consider `C[C@H]1N=C(c2ccccc2F)c2cc(-c3ccccc3)ccc2-n2cnc(C(=O)N(C)C)c21` [Compound 5, (R)-6-(2′-Fluorophenyl)-N,N,4-trimethyl-8-phenyl-4H-benzo[f]imidazo[1,5-a][1,4]diazepine-3-carboxamide], for which the inhibition at 10 µM at Alpha2A is 5.99%; at 5-HT1B it was 11.8%; at M2, 15.4%; at Alpha4Beta4, 1.99%; on H2, -1.42%; on Beta3, -19.4%. The inhibition at 10 µM at M4 is -3.29%. In addition, the “5-HT1E, PDSP raw data, mean” value on 5-HT1E came to 34.07%. Moreover, the “HERG, PDSP raw data, mean” value on hERG channels is reported as -0.48%.

On to `CC(C)c1noc(-c2ncn3c2[C@@H](C)N=C(c2ccccc2F)c2cc(Cl)ccc2-3)n1` [Compound 37, (R)-5-(8-Chloro-6-(2′-fluorophenyl)-4-methyl-4H-benzo[f]imidazo[1,5-a][1,4]diazepin-3-yl)-3-isopropyl-1,2,4-oxadiazole], for which the inhibition at 10 µM on Alpha2A is 22.8%; on 5-HT1B, 10.4%; on M2 it was -19.3%; at Alpha4Beta4 it was 12.9%; at H2 it was 1.66%; at Beta3, 46%. The inhibition at 10 µM at M4 was -4.01%. For the same compound, the “5-HT1E, PDSP raw data, mean” value on 5-HT1E was -14.78%. At hERG channels, the “HERG, PDSP raw data, mean” value amounted to 20.73%.

As to `CCc1noc(-c2ncn3c2[C@@H](C)N=C(c2ccccc2F)c2cc(Cl)ccc2-3)n1` [Compound 36, (R)-5-(8-Chloro-6-(2′-fluorophenyl)-4-methyl-4H-benzo[f]imidazo[1,5-a][1,4]diazepin-3-yl)-3-ethyl-1,2,4-oxadiazole], the inhibition at 10 µM was -14.4% on Alpha2A; 3.67% on 5-HT1B; -3.62% at M2; 10.2% on Alpha4Beta4; 5.61% at H2; 1.76% at Beta3. The inhibition at 10 µM at M4 is -5.41%. The “5-HT1E, PDSP raw data, mean” value on 5-HT1E is given as 5.28%. The “HERG, PDSP raw data, mean” value at hERG channels is given as -1.15%.

In the case of `CCc1noc(-c2ncn3c2CN=C(c2ccccc2F)c2cc(C4CC4)ccc2-3)n1` [Compound 44, 5-(8-Cyclopropyl-6-(2′-fluorophenyl)-4H-benzo[f]imidazo[1,5-a][1,4]diazepin-3-yl)-3-ethyl-1,2,4-oxadiazole], the inhibition at 10 µM at Alpha2A was 14.4%; on 5-HT1B, 62.1%; on M2, -13.6%; at Alpha4Beta4 it was 10.6%; on H2 it was 1.55%; at Beta3, -4.01%. The inhibition at 10 µM at M4 was -4.92%. For the same compound, the “5-HT1E, PDSP raw data, mean” value at 5-HT1E was determined as 11.75%. In addition, the “HERG, PDSP raw data, mean” value at hERG channels is reported as 33.24%.
